Reference: publication PMC8160793, “Potent Antimicrobial and Antibiofilm Activities of Feleucin-K3 Analogs Modified by α-(4-Pentenyl)-Ala against Multidrug-Resistant Bacteria” (Biomolecules, 2021)
In brackets after ≈: the same amount, converted by molar mass. Square brackets hold non-standard residues; d marks the D form. Peptide text beside a SMILES is read from it. ξ: configuration not given here. ξαMeGly(pent-4-enyl) = C=CCCCC(C)(N)C(=O)O

Key:
E. coli ATCC 25922 = assay type: cell-based; settings: ATCC 25922, 24 h
Experimental: (§1) The antibiofilm activity of the peptides was determined according to the previously described methods. Strains (final concentration of 5 × 10^5 CFU/mL) and peptides (4–128 μg/mL) were incubated for 24 h at 37 °C. Biofilm cells were cleaned with 0.01-M PBS and fixed with methanol. Crystal violet (0.1%, HopeBiol, Qingdao, China) was used to stain the biofilm cells for 10 min. After washing with water, 95% ethanol was finally added, and the optical density at 595 nm was measured with a microplate reader (Flex Station 3; Laguna Hills, CA, USA).

P.aeruginosa ATCC 27853 = assay type: cell-based, Pseudomonas aeruginosa; settings: ATCC 27853, 24 h
Experimental: as §1

MRSA 54 = assay type: cell-based, Staphylococcus aureus; settings: 54, 18 h
In short: (§2)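 MICs come from broth microdilution with 1 × 10^6 CFU/mL bacteria and peptide at 8–128 μg/mL, incubated 18 h at 37 °C. Salt stability was assessed under 450-mM NaCl, otherwise identically. Values were accepted once obtained three times.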

MRSA 23 = assay type: cell-based, Staphylococcus aureus; settings: 23, 18 h
In short: as §2

MRSA 52 = assay type: cell-based, Staphylococcus aureus; settings: 52, 18 h
In short: as §2

A. baumannii ATCC 19606 [1] = assay type: cell-based, Acinetobacter baumannii; settings: ATCC 19606, 24 h
Experimental: as §1

P. aeruginosa ATCC 27853 = assay type: cell-based, Pseudomonas aeruginosa; settings: ATCC 27853, 18 h
Experimental: The minimum inhibitory concentration (MIC) of the Feleucin-K3 analogs was tested by the broth microdilution method. Sensitive bacteria and drug-resistant bacteria were diluted to 1 × 10^6 CFU/mL, according to the McFarland standards. Bacterial suspension and peptide solutions (8–128 μg/mL) were incubated at 37 °C for 18 h. The minimum concentration without obvious bacterial growth was the MIC of the peptides. The stability of the analogs in a physiological salt environment was also investigated. In brief, salt powder (450-mM NaCl) was dissolved in deionized water, and the following investigational steps were the same as those described before. The above steps were repeated several times, until the same value was obtained three times.

mouse RBCs = assay: Hemolytic activity; assay type: cell-based; settings: equal volume of 8% RBC suspension, 1 h, OD 490 nm, Triton X-100 positive control; for hemolysis rate at 128 µg/mL: peptide 128 µg/mL (maximum concentration)
Experimental: Mouse red blood cells (RBCs) were collected using the eyeball removal method to investigate the hemolytic activity of the Feleucin-K3 analogs. Then, these analogs were incubated with the same volume of 8% RBC suspension for 1 h. After centrifugation for 10 min, 100 μL of supernatant was withdrawn, and the optical density at 490 nm was detected. The hemolysis rate of the cells treated with 0.1% Triton X-100 (Solarbio, Beijing, China) was used as a positive control, and PBS was used as a negative control.

S. aureus ATCC 25923 = assay type: cell-based, Staphylococcus aureus; settings: ATCC 25923, 24 h
Experimental: as §1

MRSA ATCC 33591 = assay type: cell-based, Staphylococcus aureus; settings: ATCC 33591, 24 h
Experimental: as §1

A. baumannii 5444 = assay type: cell-based, Acinetobacter baumannii; settings: 5444, 18 h
In short: as §2

A. baumannii 9331 = assay type: cell-based, Acinetobacter baumannii; settings: 9331, 18 h
In short: as §2

A. baumannii 9828 = assay type: cell-based, Acinetobacter baumannii; settings: 9828, 18 h
In short: as §2

A. baumannii 97830 = assay type: cell-based, Acinetobacter baumannii; settings: 97830, 18 h
In short: as §2

A. baumannii 92359 = assay type: cell-based, Acinetobacter baumannii; settings: 92359, 18 h
In short: as §2

A. baumannii 8309 = assay type: cell-based, Acinetobacter baumannii; settings: 8309, 18 h
In short: as §2

A. baumannii 822144 = assay type: cell-based, Acinetobacter baumannii; settings: 822144, 18 h
In short: as §2

A. baumannii 91152 = assay type: cell-based, Acinetobacter baumannii; settings: 91152, 18 h
In short: as §2

A. baumannii 91810 = assay type: cell-based, Acinetobacter baumannii; settings: 91810, 18 h
In short: as §2

A. baumannii 9896 = assay type: cell-based, Acinetobacter baumannii; settings: 9896, 18 h
In short: as §2

A. baumannii 9234 = assay type: cell-based, Acinetobacter baumannii; settings: 9234, 18 h
In short: as §2

A. baumannii 9236 = assay type: cell-based, Acinetobacter baumannii; settings: 9236, 18 h
In short: as §2

A. baumannii 91199 = assay type: cell-based, Acinetobacter baumannii; settings: 91199, 18 h
In short: as §2

A. baumannii 91944 = assay type: cell-based, Acinetobacter baumannii; settings: 91944, 18 h
In short: as §2

A. baumannii ATCC 19606 [2] = assay type: cell-based, Acinetobacter baumannii; settings: ATCC 19606, 18 h
In short: as §2

A. baumannii 51243 = assay type: cell-based, Acinetobacter baumannii; settings: 51243, 18 h
In short: as §2

A. baumannii 98110 = assay type: cell-based, Acinetobacter baumannii; settings: 98110, 18 h
In short: as §2

A. baumannii 9336 = assay type: cell-based, Acinetobacter baumannii; settings: 9336, 18 h
In short: as §2

A. baumannii 91869 = assay type: cell-based, Acinetobacter baumannii; settings: 91869, 18 h
In short: as §2

A. baumannii 91105 = assay type: cell-based, Acinetobacter baumannii; settings: 91105, 18 h
In short: as §2

A. baumannii 9840 = assay type: cell-based, Acinetobacter baumannii; settings: 9840, 18 h
In short: as §2

SMILES | MBIC50, E. coli ATCC 25922 (E. coli ATCC 25922) | MBIC90, E. coli ATCC 25922 (E. coli ATCC 25922) | MBIC50, P.aeruginosa ATCC 27853 (P.aeruginosa ATCC 27853) | MBIC90, P.aeruginosa ATCC 27853 (P.aeruginosa ATCC 27853) | MIC, MRSA 54 (MRSA 54) | MIC, MRSA 23 (MRSA 23) | MIC, MRSA 52 (MRSA 52) | MBIC50, A. baumannii ATCC 19606 (A. baumannii ATCC 19606 [1]) | MBIC90, A. baumannii ATCC 19606 (A. baumannii ATCC 19606 [1]) | MIC, P. aeruginosa ATCC 27853 (P. aeruginosa ATCC 27853) | hemolysis rate at 128 µg/mL (mouse RBCs) | MBIC50, S. aureus ATCC 25923 (S. aureus ATCC 25923) | MBIC90, S. aureus ATCC 25923 (S. aureus ATCC 25923) | MBIC50, MRSA ATCC 33591 (MRSA ATCC 33591) | MBIC90, MRSA ATCC 33591 (MRSA ATCC 33591) | MIC, A. baumannii 5444 (A. baumannii 5444) | MIC, A. baumannii 9331 (A. baumannii 9331) | MIC, A. baumannii 9828 (A. baumannii 9828) | MIC, A. baumannii 97830 (A. baumannii 97830) | MIC, A. baumannii 92359 (A. baumannii 92359) | also measured
C=CCCCC(C)(N)C(=O)N[C@@H](CC(C)C)C(=O)N[C@@H](CCCCN)C(=O)N[C@@H](CC(C)C)C(=O)N[C@@H](CC(C)C)C(=O)N[C@@H](CCCCN)C(=O)N[C@@H](CCCCN)C(=O)N[C@@H](CC(C)C)C(=O)N[C@@H](CC(C)C)C(N)=O (stereo partly shown) [Feleucin-K65] (H-[ξαMeGly(pent-4-enyl)]LKLLKKLL-NH2) | 16 µg/mL | 32 µg/mL | 8 µg/mL | 16 µg/mL | 4 µg/mL (≈ 3.61 µM) | 4 µg/mL (≈ 3.61 µM) | 4 µg/mL (≈ 3.61 µM) | 8 µg/mL | 8 µg/mL | 8 µg/mL (≈ 7.23 µM) | 31.6% | 8 µg/mL | 16 µg/mL | 8 µg/mL | 8 µg/mL | 4 µg/mL (≈ 3.61 µM) | 8 µg/mL (≈ 7.23 µM) | 4 µg/mL (≈ 3.61 µM) | 4 µg/mL (≈ 3.61 µM) | 4 µg/mL (≈ 3.61 µM) | hemolysis rate at 64 µg/mL (mouse RBCs; peptide 64 µg/mL): 9.08%; MIC, A. baumannii 8309 (A. baumannii 8309): 4 µg/mL (≈ 3.61 µM); MIC, A. baumannii 822144 (A. baumannii 822144): 8 µg/mL (≈ 7.23 µM); MIC, A. baumannii 91152 (A. baumannii 91152): 4 µg/mL (≈ 3.61 µM); MIC, A. baumannii 91810 (A. baumannii 91810): 4 µg/mL (≈ 3.61 µM); MIC, A. baumannii 9896 (A. baumannii 9896): 4 µg/mL (≈ 3.61 µM); MIC, A. baumannii 9234 (A. baumannii 9234): 4 µg/mL (≈ 3.61 µM); MIC, A. baumannii 9236 (A. baumannii 9236): 4 µg/mL (≈ 3.61 µM); MIC, A. baumannii 91199 (A. baumannii 91199): 4 µg/mL (≈ 3.61 µM); MIC, A. baumannii 91944 (A. baumannii 91944): 4 µg/mL (≈ 3.61 µM); MIC, A. baumannii ATCC 19606 (A. baumannii ATCC 19606 [2]): 4 µg/mL (≈ 3.61 µM); MIC, A. baumannii 51243 (A. baumannii 51243): 4 µg/mL (≈ 3.61 µM); MIC, A. baumannii 98110 (A. baumannii 98110): 4 µg/mL (≈ 3.61 µM); MIC, A. baumannii 9336 (A. baumannii 9336): 4 µg/mL (≈ 3.61 µM); MIC, A. baumannii 91869 (A. baumannii 91869): 4 µg/mL (≈ 3.61 µM); MIC, A. baumannii 91105 (A. baumannii 91105): 4 µg/mL (≈ 3.61 µM); MIC, A. baumannii 9840 (A. baumannii 9840): 4 µg/mL (≈ 3.61 µM)
C=CCCCC(C)(NC(=O)[C@H](CC(C)C)NC(=O)[C@H](CCCCN)NC(=O)[C@H](CCCCN)NC(=O)[C@H](CC(C)C)NC(=O)[C@H](CC(C)C)NC(=O)[C@H](CCCCN)NC(=O)[C@H](CC(C)C)NC(=O)[C@@H](N)Cc1ccccc1)C(N)=O (stereo partly shown) [Feleucin-K70] (H-FLKLLKKL[ξαMeGly(pent-4-enyl)]-NH2) | 8 µg/mL | 32 µg/mL | 8 µg/mL | 16 µg/mL | 8 µg/mL (≈ 7.01 µM) | 8 µg/mL (≈ 7.01 µM) | 8 µg/mL (≈ 7.01 µM) | 8 µg/mL | 16 µg/mL | 8 µg/mL (≈ 7.01 µM) | less than 1% | 4 µg/mL | 8 µg/mL | 4 µg/mL | 8 µg/mL | 8 µg/mL (≈ 7.01 µM) | 16 µg/mL (≈ 14 µM) | 8 µg/mL (≈ 7.01 µM) | 8 µg/mL (≈ 7.01 µM) | 8 µg/mL (≈ 7.01 µM) | MIC, A. baumannii 8309 (A. baumannii 8309): 8 µg/mL (≈ 7.01 µM); MIC, A. baumannii 822144 (A. baumannii 822144): 8 µg/mL (≈ 7.01 µM); MIC, A. baumannii 91152 (A. baumannii 91152): 8 µg/mL (≈ 7.01 µM); MIC, A. baumannii 91810 (A. baumannii 91810): 8 µg/mL (≈ 7.01 µM); MIC, A. baumannii 9896 (A. baumannii 9896): 4 µg/mL (≈ 3.51 µM); MIC, A. baumannii 9234 (A. baumannii 9234): 8 µg/mL (≈ 7.01 µM); MIC, A. baumannii 9236 (A. baumannii 9236): 8 µg/mL (≈ 7.01 µM); MIC, A. baumannii 91199 (A. baumannii 91199): 8 µg/mL (≈ 7.01 µM); MIC, A. baumannii 91944 (A. baumannii 91944): 8 µg/mL (≈ 7.01 µM); MIC, A. baumannii ATCC 19606 (A. baumannii ATCC 19606 [2]): 8 µg/mL (≈ 7.01 µM); MIC, A. baumannii 51243 (A. baumannii 51243): 8 µg/mL (≈ 7.01 µM); MIC, A. baumannii 98110 (A. baumannii 98110): 8 µg/mL (≈ 7.01 µM); MIC, A. baumannii 9336 (A. baumannii 9336): 8 µg/mL (≈ 7.01 µM); MIC, A. baumannii 91869 (A. baumannii 91869): 8 µg/mL (≈ 7.01 µM); MIC, A. baumannii 91105 (A. baumannii 91105): 4 µg/mL (≈ 3.51 µM); MIC, A. baumannii 9840 (A. baumannii 9840): 8 µg/mL (≈ 7.01 µM)
